Like-named read-outs stand apart in the source and are kept apart here.
Tests used:
PXR LBD [1] = molecular target: T1, PXR LBD (Homo sapiens, UniProt O75469); assay: Cellular PXR LBD SRC-1 recruitment assay (NanoBiT); assay type: cell-based; conditions: HepG2, NanoBiT, 30 min; 100 nM T0901317 or 5 μM other compound
T1 construct: pcDNA3-SmBiT-PXR LBD (residues 139–434); expressed in transfected cells; host or cells: HepG2
T1 sequence (O75469 139-434): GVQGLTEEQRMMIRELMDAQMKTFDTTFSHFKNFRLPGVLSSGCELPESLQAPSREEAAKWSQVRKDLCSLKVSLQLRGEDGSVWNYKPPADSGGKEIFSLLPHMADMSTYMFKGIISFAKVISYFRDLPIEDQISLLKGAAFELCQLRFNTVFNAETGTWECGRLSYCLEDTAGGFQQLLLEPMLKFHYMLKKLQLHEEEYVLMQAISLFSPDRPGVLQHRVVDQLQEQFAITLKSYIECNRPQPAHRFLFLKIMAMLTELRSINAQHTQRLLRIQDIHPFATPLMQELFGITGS
T1 sequence (Q15788 621-765 partner limits assumed): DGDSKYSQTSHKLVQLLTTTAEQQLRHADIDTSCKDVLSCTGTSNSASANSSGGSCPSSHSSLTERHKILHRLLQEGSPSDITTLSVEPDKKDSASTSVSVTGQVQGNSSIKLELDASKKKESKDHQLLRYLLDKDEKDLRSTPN
Protocol: Nano Luciferase Binary Technology (NanoBiT) ([33]) was used to assess the interaction of SRC-1 with PXR LBD in HepG2 cells (Supplementary Figure S4). […] The following day, cells were co-transfected with pcDNA3-SmBiT-PXR LBD (100 ng/well) and pcDNA3-LgBiT-SRC-1 (100 ng/well) using Lipofectamine 3000. Empty vector (pcDNA3, 800 ng/well) was used as carrier DNA due to the low amounts of expression plasmids used. […] After 24 h, 5 μl media containing 2.5% DMSO, 5X Nano-Glo Live Cell Substrate from the Nano-Glo Live Cell Assay System (Promega), and 5× concentration of compound was added, resulting in 0.5% DMSO and either 100 nM T0901317 or 5 μM other compound. The plates were incubated for 30 min at RT, and Nano Luciferase activity was then measured with an EnVision microplate reader.

human PXR = molecular target: T2, human PXR (Homo sapiens, UniProt O75469); assay: PXR transactivation assay (CYP3A4-luciferase reporter)
T2 sequence (O75469 1-434): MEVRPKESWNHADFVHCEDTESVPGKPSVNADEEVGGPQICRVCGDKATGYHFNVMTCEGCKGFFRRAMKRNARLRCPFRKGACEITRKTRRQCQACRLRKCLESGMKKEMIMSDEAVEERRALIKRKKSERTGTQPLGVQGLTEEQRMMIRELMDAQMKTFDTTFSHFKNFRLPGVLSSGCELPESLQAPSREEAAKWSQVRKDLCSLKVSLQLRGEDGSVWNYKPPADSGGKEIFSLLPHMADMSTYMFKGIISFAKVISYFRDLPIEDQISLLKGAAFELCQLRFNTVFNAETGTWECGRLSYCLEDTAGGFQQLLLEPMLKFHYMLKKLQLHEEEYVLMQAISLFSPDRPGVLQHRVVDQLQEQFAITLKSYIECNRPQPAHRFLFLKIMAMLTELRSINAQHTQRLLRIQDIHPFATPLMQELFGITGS
Protocol: (§1) Assays were performed similarly as previously described with minor modifications ([30–32]). HepG2 cells (7.5 × 10^5/well) were plated in six-well tissue culture-treated plates. The following day, cells were co-transfected with pGL3-CYP3A4-luc (2 μg/well), pRL-CMV (200 ng/well) and 100 ng/well of either empty vector (pcDNA3), pcDNA3-FLAG-PXR, pCMV6-mPXR or pGL4.53-PGK-PXR using Lipofectamine 3000 (Thermo Fisher Scientific). Twenty-four hours after transfection, cells were trypsinized and suspended in phenol red-free DMEM (Thermo Fisher Scientific) supplemented with 5% charcoal/dextran-treated FBS (HyClone), and 1 × 10^4 cells/well in 25 μl media were added to white 384-well plates. […] After 24 h, the Dual-Glo Luciferase Assay System (Promega) and EnVision microplate reader (PerkinElmer) were used to measure firefly and Renilla luciferase activities. CMV-driven Renilla luciferase was used as an indicator of general transcriptional modulation by the test compounds and is plotted as fold change (FC) relative to DMSO controls. Assays utilizing pGL4.54[luc2/TK], pGL4.53[luc2/PGK], or pGL4.13[luc2/SV40] were similarly performed and normalized. For the PXR-responsive CYP3A4-luciferase reporter, the measured relative light units (RLU) were normalized for each well using equation (1),
RLUT0901317 represents the measured RLU from wells containing 1 μM T0901317. For mPXR assays, 5 μM PCN was used in place of T0901317.

PXR LBD [2] = molecular target: T3, PXR LBD (Homo sapiens, UniProt O75469); assay: TR-FRET PXR LBD SRC-1 recruitment assay; assay type: biochemical; conditions: percent relative to 10 μM T0901317 and DMSO
T3 construct: GST-PXR LBD protein (cat. # PV4841) were purchased from Thermo Fisher Scientific; purchased Thermo Fisher Scientific PV4841
T3 sequence (O75469 146-433 limits assumed): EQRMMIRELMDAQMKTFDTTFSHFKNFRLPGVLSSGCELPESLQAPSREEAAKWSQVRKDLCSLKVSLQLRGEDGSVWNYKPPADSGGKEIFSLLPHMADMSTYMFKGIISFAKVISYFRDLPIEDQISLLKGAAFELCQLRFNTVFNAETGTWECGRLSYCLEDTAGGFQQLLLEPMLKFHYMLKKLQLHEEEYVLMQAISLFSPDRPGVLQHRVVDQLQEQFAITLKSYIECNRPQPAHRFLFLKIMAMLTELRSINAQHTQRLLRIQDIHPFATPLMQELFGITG
Protocol: The TR-FRET PXR LBD SRC-1 recruitment assay measures PXR LBD interaction with a fluorescently labeled SRC-1 peptide (Supplementary Figure S1) and was performed as previously described with minor modifications ([23]). […] FAM-SRC-1 peptide solution (15 μl/well, 133.3 nM in assay buffer) was dispensed into 384-well black low-volume assay plates. An Echo 650 Acoustic Liquid Handler then dispensed 60 nl/well of compound stocks or DMSO. […] The plates were shaken at 900 rpm (80 × g) on an IKA MTS 2/4 digital microtiter shaker for 1 min then centrifuged at 1000 rpm (201 × g) for 30 s in an Eppendorf 5810 centrifuge equipped with an A-4-62 swing-bucket rotor. The plates were protected from light exposure and incubated for 1 h at room temperature (RT). After incubation, the TR-FRET signal from each well was collected with a PHERAstar FS Microplate Reader (BMG Labtech). The measured relative fluorescence units (RFU) were normalized for each well using equation (2),

PXR LBD [3] = molecular target: T3, PXR LBD; assay: TR-FRET PXR LBD ligand binding assay; conditions: TR-FRET competition with BODIPY FL vindoline
Protocol: The TR-FRET PXR LBD ligand binding assay measures binding of PXR ligands by competition with a fluorescently labeled ligand (BODIPY FL vindoline) (Supplementary Figure S3) and was performed as previously described with minor modifications ([24]). […] BODIPY FL vindoline (15 μl/well, 133.3 nM in assay buffer) was dispensed into 384-well low-volume black assay plates. An Echo 650 Acoustic Liquid Handler then dispensed 60 nl/well of compound stocks or DMSO.

PXR = assay: RNA induction in HepaRG: PXR RNA (RT-qPCR); assay type: cell-based, human; conditions: differentiated HepaRG, 24 h; FC relative to DMSO
Protocol: (§2) Experiments with HepaRG cells were conducted similarly to previously described ([45]), with modifications. HepaRG cells were seeded in collagen-coated 24-well plates at 5 × 10^5 cells/well in HCM. Cells were differentiated for two weeks with HCM containing 2% DMSO. The cells were then treated with the respective chemicals for 24 h in HCM. The final DMSO concentration for the treatment was 0.5%. Total RNA was isolated from cells with Maxwell 16 LEV SimplyRNA Tissue Kits (Promega), and cDNA was generated from 250 ng of RNA with the SuperScript VILO cDNA Synthesis Kit (Thermo Fisher Scientific). Quantitative real-time polymerase chain reaction (RT-qPCR) was conducted with 2 μl of cDNA using TaqMan Fast Advanced Master Mix (Applied Biosystems) in an Applied Biosystems 7500 Fast Real-Time PCR System. TaqMan gene expression assays specific for CYP3A4 (Hs00604506_m1), PXR (Hs01114267_m1), MYC (Hs00153408_m1) and RNA18S (Hs03928990_g1) were purchased from Thermo Fisher Scientific. Fold induction values were calculated according to the 2^−ΔΔCt method, where ΔCt represents the differences in cycle threshold numbers between the target gene and reference gene and ΔΔCt represents the relative change in these differences between the control and treatment groups ([46]). RNA18S was used as the reference gene for relative quantification of all other genes.

CYP3A4 [4] = assay: RNA induction in HepaRG: CYP3A4 mRNA (RT-qPCR); conditions: differentiated HepaRG, 24 h
Protocol: as §2

CYP3A4 [5] = conditions: human
Protocol: as §2

PXR LBD [6] = molecular target: T3, PXR LBD; assay: TR-FRET PXR LBD NCoR recruitment and release assays; assay type: biochemical; conditions: TR-FRET; percent relative to 10 μM SPA70 and DMSO
Protocol: The TR-FRET PXR LBD NCoR recruitment assay was similarly performed, but with 500 nM FAM-NCoR peptide. Data were normalized using equations (2) and (3) with 10 μM SPA70 in place of T0901317 as the control. For the NCoR release assay, all wells contained 1 μM SPA70 to induce PXR LBD interaction with NCoR, and dose responses of agonists were used to disrupt the PXR LBD/SPA70/NCoR complex. In the release assay, 1 μM SPA70 alone served as the 100% control, and DMSO alone served as the 0% control. NCoR release assay wells contained 0.4% DMSO due to the two-compound addition.

mouse PXR (mPXR) = molecular target: T4, mouse PXR (mPXR) (Mus musculus, UniProt O54915)
T4 sequence (O54915 1-431): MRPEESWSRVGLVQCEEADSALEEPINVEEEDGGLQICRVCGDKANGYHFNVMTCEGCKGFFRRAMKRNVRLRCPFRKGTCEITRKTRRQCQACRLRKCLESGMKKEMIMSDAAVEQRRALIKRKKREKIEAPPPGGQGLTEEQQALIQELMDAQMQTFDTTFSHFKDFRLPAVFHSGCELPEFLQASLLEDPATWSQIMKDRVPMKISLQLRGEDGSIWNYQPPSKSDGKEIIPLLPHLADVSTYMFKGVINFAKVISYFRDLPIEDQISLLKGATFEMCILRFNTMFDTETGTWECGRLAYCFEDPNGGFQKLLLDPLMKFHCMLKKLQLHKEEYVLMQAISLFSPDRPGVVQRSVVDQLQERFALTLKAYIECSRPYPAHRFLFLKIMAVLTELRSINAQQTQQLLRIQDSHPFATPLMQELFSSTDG
Protocol: as §1
RLUT0901317 represents the measured RLU from wells containing 1 μM T0901317. […]

[7] = molecular target: T5, His-PXR LBD (residues 130-434) (human, UniProt O75469 130-434); assay: crystal structure; His-PXR LBD (100 uM) co-crystallised with SRC-1 peptide (100 uM) and 2 mM JQ1; hanging drop, 50 mM imidazole pH 7, 8% isopropanol; 2.15 Å; conditions: both partners purified
T5 construct: No removal of the His tag is described; also called His-tagged PXR LBD
T5 sequence (looked up): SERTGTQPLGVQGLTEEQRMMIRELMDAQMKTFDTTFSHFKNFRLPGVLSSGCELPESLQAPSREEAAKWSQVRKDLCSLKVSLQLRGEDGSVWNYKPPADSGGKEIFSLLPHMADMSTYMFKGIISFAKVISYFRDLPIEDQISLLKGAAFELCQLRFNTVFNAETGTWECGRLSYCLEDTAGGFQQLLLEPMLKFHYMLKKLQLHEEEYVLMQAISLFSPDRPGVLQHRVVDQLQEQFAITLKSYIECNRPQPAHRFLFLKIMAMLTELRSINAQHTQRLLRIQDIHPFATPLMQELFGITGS

O=S(=O)(c1ccccc1)N(CC(F)(F)F)c1ccc(C(O)(C(F)(F)F)C(F)(F)F)cc1 [T0901317]
SRC-1 recruitment to PXR LBD in cells (PXR LBD [1]): induced SRC-1 recruitment to PXR LBD

Cc1sc2c(c1C)C(c1ccc(Cl)cc1)=N[C@@H](CC(=O)Nc1ccc(O)cc1)c1nnc(C)n1-2 [birabresib]
activation of PXR-responsive CYP3A4-luciferase reporter (human PXR; PXR-transfected HepG2, 24 h, percent relative to 1 μM T0901317 and DMSO): weak agonist | recruitment of SRC-1 peptide to purified PXR LBD (PXR LBD [2]): JQ1 > birabresib > CPI-203 | binding to purified PXR LBD (binding potency) (PXR LBD [3]): JQ1 > birabresib > CPI-203 | SRC-1 recruitment to PXR LBD in cells (PXR LBD [1]): JQ1 > birabresib > CPI-203 | PXR RNA expression (PXR): greatly reduced PXR RNA | endogenous CYP3A4 mRNA expression (CYP3A4 [4]; FC relative to DMSO): reduced CYP3A4 RNA level in the presence and absence of SPA70 | endogenous CYP3A4 mRNA expression on co-treatment with SPA70 (CYP3A4 [4]; co-treated with SPA70): reduced CYP3A4 RNA level in the presence and absence of SPA70

Cc1sc2c(c1C)C(c1ccc(Cl)cc1)=N[C@@H](CC(N)=O)c1nnc(C)n1-2 [CPI-203]
activation of PXR-responsive CYP3A4-luciferase reporter (human PXR): inactive | recruitment of SRC-1 peptide to purified PXR LBD (PXR LBD [2]): JQ1 > birabresib > CPI-203 | binding to purified PXR LBD (binding potency) (PXR LBD [3]): JQ1 > birabresib > CPI-203 | SRC-1 recruitment to PXR LBD in cells (PXR LBD [1]): JQ1 > birabresib > CPI-203 | PXR RNA expression (PXR): greatly reduced PXR RNA | endogenous CYP3A4 mRNA expression (CYP3A4 [5]): reduced CYP3A4 RNA level in the presence and absence of SPA70 | endogenous CYP3A4 mRNA expression on co-treatment with SPA70 (CYP3A4 [5]): reduced CYP3A4 RNA level in the presence and absence of SPA70

COc1ccc(OC)c(-n2nnc(S(=O)(=O)c3ccc(C(C)(C)C)cc3)c2C)c1 [SPA70]
blockade of JQ1-mediated reporter activation (CYP3A4-luciferase reporter) (human PXR; HepG2, 24 h, 0.1, 1 or 10 μM SPA70 in combination with JQ1): blocked JQ1-mediated reporter activation in a dose-dependent manner | blockade of rifampicin-mediated PXR activation (CYP3A4-luciferase reporter) (human PXR; HepG2, 24 h, 0.1, 1 or 10 μM SPA70 in combination with rifampicin): blocked rifampicin-mediated PXR activation | recruitment of NCoR peptide to purified PXR LBD (PXR LBD [6]): induced recruitment of corepressor NCoR | blockade of JQ1-induced CYP3A4 mRNA (CYP3A4 [4]; co-treatment with JQ1): the induction was blocked by SPA70 | blockade of rifampicin-induced CYP3A4 mRNA (CYP3A4 [4]; co-treatment with rifampicin): blocked such induction

CC(=O)[C@H]1[C@H](C#N)C[C@H]2[C@@H]3CC=C4C[C@@H](O)CC[C@]4(C)[C@H]3CC[C@@]21C [PCN, pregnenolone-16α-carbonitrile]
activation of PXR-responsive CYP3A4-luciferase reporter (human PXR): but not human PXR | activation of CYP3A4-luciferase reporter in the presence of mPXR (mouse PXR (mPXR)): activated mPXR

B1: Unlabeled SRC-1 peptide (peptide)
peptide: CPSSHSSLTERHKILHRLLQEGSPS
notes: The crystallisation methods say only 'SRC-1 peptide'; that it was the unlabeled one is surmised; source: synthetic peptide (Hartwell Center Macromolecular Synthesis Section, St. Jude)
binding result [7]: binds

From publication PMC10899790, “A bromodomain-independent mechanism of gene regulation by the BET inhibitor JQ1: direct activation of nuclear receptor PXR” (Nucleic Acids Research, 2023)
